Tests used:
[1] = tested on: Rice (Nipponbare) calluses transformed with pCAMBIA1390-KasCYP72A31; test: Selection of drug-resistant callus in N6D medium, pCAMBIA1390-KasCYP72A31; type: cell-based, Oryza sativa; conditions: 4 weeks
Protocol: (§1) Rice transformed with pCAMBIA1390-KasCYP72A31 was used to examine whether a Kasalath-derived CYP72A31 gene was able to be used as a selection marker for transformation with BS as a selection reagent. According to Example 5, rice (Nipponbare) was transformed with pCAMBIA1390-KasCYP72A31 or pSTARA-sGFP by using an Agrobacterium method.
(§2) Rice (Nipponbare) calluses transformed with pCAMBIA1390-KasCYP72A31 were cultured for 4 weeks in an N6D medium containing 0.1 or 0.25 μM BS or an N6D medium containing 50 ppm hygromycin to select drug-resistant calluses. Also, rice calluses transformed with pSTARA-sGFP were selected in a similar manner in an N6D medium containing 0.25 μM BS.

[2] = tested on: Nipponbare and Kasalath calluses with GFP overexpression construct; test: Callus growth test on BS-containing medium, GFP overexpression construct; type: cell-based, Oryza sativa; conditions: medium containing 0.25, 0.5, or 0.75 μM BS
From the text: According to Example 5, an HptII::35Spro::Kasalath CYP72A31::Tnos vector plasmid (pCAMBIA1390-KasCYP72A31, a kasCYP72A31 overexpression construct) or, as a control, an HptII::35Spro::sGFP::Tnos vector plasmid (pCAMBIA1390-sGFP, an sGFP overexpression construct) was introduced into a rice variety (cultivars: Nipponbare and Kasalath) by using an Agrobacterium method. Transformed calluses selected with 50 ppm hygromycin were isolated, and transplanted onto a bispyribac-sodium (BS)-containing medium to examine callus growth.

[3] = tested on: rice calluses transformed with pSTARA-sGFP; test: Selection of drug-resistant callus in N6D medium, pSTARA-sGFP; type: cell-based, Oryza sativa; conditions: N6D medium containing 0.25 μM BS
Protocol: as §1, §2

[4] = tested on: Arabidopsis thaliana (K31-4-2) transformed with a Kasalath-derived CYP72A31 gene; test: Drug sensitivity test on drug-containing MS medium, Arabidopsis thaliana transformed with Kasalath-derived CYP72A31 gene; type: in vivo; conditions: for Ratio of sensitivity: K31-4-2 / NT
Protocol: A bag of mixed salts for Murashige-Skoog (MS) medium (manufactured by Wako Pure Chemical Industries, Ltd.) 20 g of sucrose, 3 mg of thiamin hydrochloride, 5 mg of nicotinic acid, and 0.5 mg of pyridoxine hydrochloride were dissolved in distilled water, and filled up to 1 L with distilled water. After pH adjustment to 5.8 to 6.3 with 1 M KOH, 3 g of Gelrite was added to the solution, and dissolved using a microwave. After that, the mixture was autoclaved to prepare a sterile MS medium. A test drug was added to this sterile MS medium so as to make a final concentration of 1.3, 4.1, 12, 37, 110, or 330 nM. Arabidopsis thaliana from a sterilized seed was seeded in the drug-containing MS medium, and cultivated at 22° C. for 12 to 14 days in a continuous light period.
Note that the drugs used in this Example were bispyribac-sodium, pyrithiobac-sodium, pyriminobac, bensulfuron-methyl, penoxsulam, pyrazosulfuron-ethyl, amidosulfuron, imazosulfuron, nicosulfuron, and propyrisulfuron.

COc1cc(OC)nc(Oc2cccc(Oc3nc(OC)cc(OC)n3)c2C(=O)O)n1 [BS, bispyribac sodium]
Selection efficiency (ratio of the resulting transformed calluses/all calluses) ([1]; N6D medium containing 0.1 μM BS): 71%
Selection efficiency (ratio of the resulting transformed calluses/all calluses) ([1]; N6D medium containing 0.25 μM BS): 61%
Callus growth [2]: inhibited their growth
Selection efficiency (ratio of the resulting transformed calluses/all calluses) [3]: 82%
Resistance of transformed Arabidopsis thaliana to the drug ([4]; K31-4-2, Tables 2 and 3, FIGS. 20 to 24): exhibited resistance
Rate of emerging of true leaf (%) ([4]; K31-4-2, drug 1.3 nM, day 12 after seeding): 89%
Rate of emerging of true leaf (%) ([4]; K31-4-2, drug 1.3 nM, day 14 after seeding): 100%
Rate of emerging of true leaf (%) ([4]; K31-4-2, drug 4.1 nM, day 12 after seeding): 100%
Rate of emerging of true leaf (%) ([4]; K31-4-2, drug 4.1 nM, day 14 after seeding): 100%
Rate of emerging of true leaf (%) ([4]; K31-4-2, drug 12 nM, day 12 after seeding): 89%
Rate of emerging of true leaf (%) ([4]; K31-4-2, drug 12 nM, day 14 after seeding): 100%
Rate of emerging of true leaf (%) ([4]; K31-4-2, drug 37 nM, day 12 after seeding): 100%
Rate of emerging of true leaf (%) ([4]; K31-4-2, drug 37 nM, day 14 after seeding): 100%
Rate of emerging of true leaf (%) ([4]; K31-4-2, drug 110 nM, day 12 after seeding): 100%
Rate of emerging of true leaf (%) ([4]; K31-4-2, drug 110 nM, day 14 after seeding): 100%
Rate of emerging of true leaf (%) ([4]; K31-4-2, drug 330 nM, day 12 after seeding): 78%
Rate of emerging of true leaf (%) ([4]; K31-4-2, drug 330 nM, day 14 after seeding): 80%
Ratio of sensitivity ([4]; maximum drug concentration for 40% or more emerging of true leaves, day 12): >28
Ratio of sensitivity ([4]; maximum drug concentration for 80% or more emerging of true leaves, day 14): >80
